Results published in publication PMC8138013, “Rational design of innate defense regulator peptides as tumor vaccine adjuvants” (NPJ Vaccines, 2021).

How the values were obtained:
[1] = test system: JAWSII cells; test: RT-qPCR of transcription factor mRNA after DP7, with or without chemical inhibitors; assay type: cell-based, mouse; details: for effect of inhibitor on DP7-induced mRNA expression of transcription factors: pretreatment 1 h at 10 μM (BIBR796 5 μM) or PTX 200 ng/ml 3 h, then DP7 30 min, compared to DP7 alone
Protocol: [The procedure below names another cell line; the source lists this cell line under the same test.] Small molecule inhibitors were employed to elucidate the upstream signaling pathways involved in the expression of 6 transcription factors: selumetinib (MEK1/2 inhibitor), BIBR796 (p38α inhibitor), sp600125 (pan JNK inhibitor), XMD8-92 (Erk5 inhibitor), sotrastaurin (PKCθ inhibitor), AS-605240 (PI3Kγ inhibitor), LY294002 (PI3Kα/β/γ inhibitor) and pertussis toxin (PTX, Gi protein inhibitor). BMDCs were pretreated with 10 μM selumetinib, 5 μM BIBR796, 10 μM sp600125, 10 μM XMD8-92, 10 μM sotrastaurin, 10 μM AS-605240, and 10 μM LY294002 at 37 °C for 1 h and with 200 ng/ml PTX at 37 °C for 3 h. BMDCs were exposed to DP7 at 37 °C for 30 min, and then the mRNA expression of the transcription factors was examined by RT-qPCR.
Total RNA was isolated using TRIzol reagent (Takara, Otsu, Japan), further purified by isopropanol/ethanol precipitation and finally dissolved in RNase-Free H2O. cDNA was prepared with 5× All-In-One MasterMix with the AccuRT Genomic DNA Removal Kit (Abm Canada Inc., Milton, ON, Canada) and employed as a template to assess the expression of various genes with EvaGreen 2× qPCR MasterMix (Abm Canada Inc., Milton, ON, Canada). The results were analyzed according to the relative expression normalized against β-actin.

[2] = test system: JAWSII cells; test: Western blotting of Erk1/2 phosphorylation in JAWSII cells; assay type: cell-based, mouse
Excerpt: Protein extracts from each sample were separated by 12% SDS-PAGE and transferred onto polyvinylidene fluoride membranes (Millipore, Billerica, MA). The membranes were blocked with 5% non-fat milk. Then, the protein bands were probed with primary antibodies against NF-κB p65 XP® Rabbit mAb (clone D14E12; Cell Signaling Technology Cat#8242), Phospho-NF-κB p65 (Ser536) Rabbit mAb (clone 93H1; Cell Signaling Technology Cat#3033), Erk1/2 Rabbit mAb (clone 137F5; Cell Signaling Technology Cat#4695) and Phospho- Erk1/2 (Thr202/Tyr204) XP® Rabbit mAb (clone D13.14.4E; Cell Signaling Technology Cat#4370) overnight at 4 °C. Then the membranes were incubated with horseradish peroxidase-conjugated goat anti-rabbit IgG (1:3000; Cell Signaling Technology Cat#7074). The blots derive from the same experiment were processed in parallel. The full, uncropped blot with molecular weight marker are shown in Supplementary Fig. 9.

[3] = test system: C57BL/6 mice; test: Leukocyte recruitment to peritoneal lavage; assay type: in vivo, mouse; details: C57BL/6, 200 μg i.p., 24 h post-injection, N = 5, vs saline
Protocol: C57BL/6 mice (N = 5) were intraperitoneally injected with 200 μg DP7, DP8, or DP10. An equal volume of sterile saline served as a control. Cells in the peritoneal lavage were collected and counted at 24 h postinjection. To analyze the recruitment of leukocytes, cells were stained with PE-anti-mouse-GR-1(clone RB6-8C5; BD Biosciences Cat# 553128), APC-anti-mouse-F4/80 (clone T45-2342; BD Biosciences Cat# 566787) or PE-anti-CD11b (clone M1/70; BD Biosciences Cat# 557397) at 4 °C for 30 min and then detected using a BD FACSCalibur (BD Biosciences, San Jose, CA). Neutrophils, inflammatory monocytes and macrophages were gated as Gr1^+F4/80^−, F4/80^+Gr1^+, and F4/80^+CD11b^+ cells, respectively.

[4] = test system: BMDCs; test: BMDC maturation surface markers (flow cytometry); assay type: cell-based, mouse; details: CD11c+ BMDCs, 16 h, DP7 40 µg/ml, CpG 20 µg/ml
Protocol: To study the effect of the CpG/DP7 complex on BMDCs, BMDCs were incubated with DP7 (40 µg/ml), CpG (20 µg/ml) or the CpG/DP7 combination for 16 h, stained with APC-anti-Mouse CD11c (Clone HL3; BD Biosciences Cat# 550261), FITC-anti-mouse-CD40 (Clone 3/23; BD Biosciences Cat# 561845), PerCP-Cy5.5-anti-mouse-CD80(clone 16-10A1; BD Biosciences Cat# 560526) or FITC-anti-mouse-CD86 (clone GL1; BD Biosciences Cat# 561962). BMDCs were gated as CD11c^+ and analyzed for CD40, CD80, CD86 expression by NovoExpress software (ACEA Biosciences, Inc.).

[5] = test system: BMDCs; test: RNA-Seq analysis of BMDCs challenged with DP7; assay type: cell-based, mouse; details: DP7 30 min vs control
[6] = test system: JAWSII cells; test: Intracellular calcium measurement (Fluo 3-AM); assay type: cell-based, mouse; details: DP7 40 µg/ml, 15 and 30 min
Protocol: JAWSII cells (1 × 10^5) were seeded into 96-well clear–bottom black plates (Corning, New York, USA.) with six replicate wells per condition and cultured at 37 °C overnight. The cells were washed once with Hank’s buffer followed by incubation with the calcium fluorescence probe Fluo 3-AM (5 μM; excitation at 506 nm and emission at 526 nm) (Beyotime, Hangzhou, China) in Hank’s buffer at 37 °C for 30 min. After treatment, the cells were washed once with Hank’s buffer and subsequently stimulated with DP7 (40 µg/ml) for 15 min or 30 min. Fluorescence was measured by a Celligo® imaging cytometer. The Ca^2+ levels are represented by the mean fluorescence intensity of individual cells.

[7] = test system: GPR35; test: Receptor internalization assay; assay type: cell-based, mouse; details: BMDCs, DP7 40 μg/ml, 30 min, immunofluorescence; similar in JASWII and RAW264.7 cells
Protocol: BMDCs (1 × 10^5) were plated on a microscope cover glass and cultured at 37 °C overnight. The next day, the cells were stimulated with 40 μg/ml DP7 at 37 °C for 30 min and then fixed in 4% paraformaldehyde in PBS at room temperature for 15 min. After washing with PBS 3 times, the BMDCs were blocked and permeabilized in buffer containing 0.1% bovine serum albumin (BSA), 0.5% Triton X-100, and 4% goat serum in PBS for 1 h. Afterward, the BMDCs were incubated with goat anti-GPR35 (clone M-14; Santa Cruz Biotechnology Cat# sc-79507; 1:100) in 3% BSA/PBS buffer at 4 °C for 16 h, followed by staining with the FITC-labeled anti-goat IgG (H + L) secondary antibody (1:100, ZSGB-BIO, Beijing, China) in 3% BSA/PBS buffer at 37 °C for 1 h. BMDCs were finally stained with DAPI and stored at 4 °C until imaging. Confocal imaging was performed with an LSM 800 Zeiss confocal microscope.

In the case of `Cn1cnc2c(F)c(Nc3ccc(Br)cc3Cl)c(C(=O)NOCCO)cc21` [selumetinib], the “effect of inhibitor on DP7-induced mRNA expression of transcription factors” value (“effect of inhibitor” below) [1] was “significantly suppressed”.

For “pertussis toxin [PTX, reference compound]”, the “effect of inhibitor” value [1] was “significantly suppressed” and the “effect on activation of pErk1/2 by DP7” value ([2]; JAWSII cells pretreated with PTX, then DP7 30 and 60 min) was “partially abolished”.

With `O=c1cc(N2CCOCC2)oc2c(-c3ccccc3)cccc12` [LY294002] the “effect of inhibitor” value [1] was “little or no inhibitory effect”.

With `CCOc1cc(N2CCC(O)CC2)ccc1Nc1ncc2c(n1)N(C)c1ccccc1C(=O)N2C` [XMD8-92] the “effect of inhibitor” value [1] was “little or no inhibitory effect”.

For `Oc1c2ccccc2c2c3c(cccc13)N=N2` [sp600125], the “effect of inhibitor” value [1] was “little or no inhibitory effect”.

In the case of `CN1CCN(c2nc(C3=C(c4c[nH]c5ccccc45)C(=O)NC3=O)c3ccccc3n2)CC1` [sotrastaurin], the “effect of inhibitor” value [1] was “significantly suppressed”.

In the case of `Cc1ccc(-n2nc(C(C)(C)C)cc2NC(=O)Nc2ccc(OCCN3CCOCC3)c3ccccc23)cc1` [BIBR796], the “effect of inhibitor” value [1] was “little or no inhibitory effect”.

`O=C1NC(=O)/C(=C\c2ccc3nccnc3c2)S1` [AS-605240] was tested, and the “effect of inhibitor” value [1] was “significantly suppressed”.

With VQWRIRVAVIRK [DP7] the “number of macrophages in the peritoneal lavage” value [3] was “modest but nonsignificant increase”, the “numbers of monocytes and neutrophils in the peritoneal lavage” value [3] was “significant increase” and the “CD40-FITC positive BMDCs” value [4] was 1.1%. For the same compound, the “CD80-PerCP-Cy5.5 positive BMDCs” value [4] was 28.9%, the “CD86-FITC positive BMDCs” value [4] was 36.2% and the “Fold change, Akap9” value [5] was 2.08. The “Fold change, Arap2” value [5] was 2.02, the “Fold change, Atxn1l” value [5] was 2.04 and the “Fold change, Btg2” value [5] was 2.47. The “Fold change, Ccdc77” value [5] was 2.06, the “Fold change, Ccno” value [5] was 2.1 and the “Fold change, Clec4b2” value [5] was 2.82. The “Fold change, Depdc5” value [5] was 2.01, the “Fold change, Dgkh” value [5] was 2.4 and the “Fold change, Egr1” value [5] was 16.63. The “Fold change, Egr2” value [5] was 2.4, the “Fold change, Egr3” value [5] was 15.7 and the “Fold change, Ethe1” value [5] was 2.89. The “Fold change, F3” value [5] was 2.23, the “Fold change, Fbxw7” value [5] was 2.25 and the “Fold change, Fos” value [5] was 6.34. The “Fold change, Fosb” value [5] was 114.79, the “Fold change, Gm6377” value [5] was 2.68 and the “Fold change, Gm9159” value [5] was 2.03. For the same compound, the “Fold change, Gm12359” value [5] was 2.13, the “Fold change, Gpr35” value [5] was 2.2 and the “Fold change, Gpr52” value [5] was 3.32. The “Fold change, Gsta1” value [5] was 3.08, the “Fold change, Ier2” value [5] was 3.15 and the “Fold change, Igj” value [5] was 2.68. For the same compound, the “Fold change, Jmjd1c” value [5] was 2.09, the “Fold change, Klhl15” value [5] was 3.73 and the “Fold change, Lmo1” value [5] was 2.81. The “Fold change, Lrrc40” value [5] was 2.19, the “Fold change, Nr4a1” value [5] was 19.81 and the “Fold change, Nr4a2” value [5] was 2.02. The “Fold change, Osm” value [5] was 2.42, the “Fold change, Parp6” value [5] was 2.3 and the “Fold change, Perp” value [5] was 2.05. For the same compound, the “Fold change, Phf8” value [5] was 2.17, the “Fold change, Plk3” value [5] was 2.75 and the “Fold change, Prph” value [5] was 2.22. The “Fold change, Prrg4” value [5] was 2.05, the “Fold change, Slc38a9” value [5] was 2.15 and the “Fold change, Suco” value [5] was 2.19. The “Fold change, Szt2” value [5] was 2.01, the “Fold change, Tjp1” value [5] was 3.44 and the “Fold change, Tmem51” value [5] was 2.05. For the same compound, the “Fold change, Tnfaip6” value [5] was 2.01, the “Fold change, Trib1” value [5] was 2.69 and the “expression of Egr1, Egr2, Egr3, c-Fos, Fosb and Nr4a1 mRNA” value ([1]; DP7 40 μg/ml, 30 min, vs nonstimulated) was “elevated expression”. The “intracellular Ca2+ levels” value [6] was “elevation”, the “GPR35 localisation after stimulation” value [7] was “internalization of GPR35 into the cytoplasm” and the Erk1/2 phosphorylation ([2]; JAWSII cells, DP7 30 and 60 min, western blotting) was “enhancement”.
